The values that follow are results of earlier work, collected in patent publication US9333159B2, “Topical DNA repair composition” (PHOTOMEDEX, INC., priority 2011, dated 2016).

For the series the following is noted: known super antioxidants; USDA database value prevails where different.

As to `C[N+](C)(C)[C@@H](Cc1c[nH]c(=S)[nH]1)C(=O)[O-]` [ergothioneine], the ORAC score is given as 61,000.
